Experimental data published in patent US20030004128A1, “Formulatios of adenosine a1 agonists” (priority 1999, published 2003).

Experiments:
[1] = tested on: carrageenan-induced oedema; test: Carrageenan model, paw oedema (plethysmometer); type: in vivo, rat; conditions: versus vehicle control
Protocol: (§1) Male Random Hooded rats (180-220 g) were used. The test compound or vehicle was administered 30 mins before the 2nd test compound or vehicle. The test compound and vehicles used were: (i) Compound A in 1% DMSO, 66% Peg400, 33% distilled water and (ii) nabumetone in 1% DMSO, 66% Peg400, 33% distilled water. Both test compounds were administered via the oral route. After a further 30 mins 100 ul of 2% carrageenan was injected intraplantar into the left hind paw and the animals were then returned to their cages. Three hours later behavioural testing of the carrageenan-induced decrease in weight on the inflamed left hind paw (% weight on the inflammed left paw) and associated oedema was assessed. Weight bearing was measured using the dual channel weight averager and paw oedema was assessed using a plethysmometer. The dual channel weight averager is commercially available and is described in the following abstract: Validation of the dual channel weight averager as an instrument for the measurement of inflammatory pain, N. M. Clayton et al., 1997 British Journal Pharmacol. 120, 219P
(§2) Note: Oedema is the presence of abnormally large amounts of fluid in the intercellular tissue spaces of the body and in the present example is used to provide a measure of inflammation (or anti-oedemic). Allodynia is a sensation of pain resulting from a non-injurious stimulus such as normal heat, cold or pressure on skin and in the present example the weight-bearing (allodynia) effect in used to provide a measure of analgesia.
(§3) The methodology was as described for (a) above. The test compounds and vehicles used were: (i) Compound A in 1% DMSO, 66% Peg400, 33% distilled water and (ii) Compound B in 1% DMSO, 66% Peg400, 33% distilled water. Both compounds were administered via the oral route.

[2] = tested on: carrageenan-induced allodynia (decrease in weight bearing on the inflamed left hind paw); test: Carrageenan model, weight bearing on inflamed left hind paw (dual channel weight averager); type: in vivo, rat; conditions: for % Weight on inflamed paw (Allodynia): Table (A), 3 h after carrageenan, 50% = no pain; for % Inhibition Allodynia: versus vehicle control
Protocol: as §1, §2, §3

[3] = Table (B), experiment (a), Compound A 0.4 mg/kg oral
[4] = Table (C), experiment (b), Compound A 0.4 mg/kg oral
[5] = Table (C), experiment (b), Compound B 3 mg/kg oral
[6] = Table (B), experiment (a), nabumetone 3 mg/kg oral

Which results are given for `CC(C)(C)c1nnc([C@H]2O[C@@H](n3cnc4c(Nc5ccc(Cl)cc5F)ncnc43)[C@H](O)[C@@H]2O)o1` [Compound A, (2S, 3S, 4R, 5R)-2-(5 tert-butyl-[1,3,4]oxadiazol-2-yl)-5-[6-(4-chloro-2-fluoro-phenylamino)-purin-9-yl]-tetrahydro-furan-3,4-diol]?
% Inhibition Oedema [1, 3]: −7.4 ± 5.7%; % Inhibition Oedema [1, 4]: 24.9 ± 5.5%; % Weight on inflamed paw (Allodynia) ([2]; Compound A 0.4 mg/kg oral): 25.4 ± 2.9%; % Inhibition Allodynia [2, 3]: 17.0 ± 9.6%; % Inhibition Allodynia [2, 4]: 47.9 ± 11.1%

`CCOc1ccc(-c2nn3ncccc3c2-c2ccc(S(C)(=O)=O)cc2)cc1` [Compound B, 2-(4-ethoxy-phenyl)-3-(4-methanesulfonyl-phenyl)-pyrazolo[1,5-b]pyridazine] was tested. Which “% Inhibition Oedema” value [1, 5] did it give?
Its value is 35.8 ± 3.6%.

What about the “% Inhibition Allodynia” value [2, 5] of the same molecule?
Its value is 45.4 ± 8.9%.

What does the source list for `COc1ccc2cc(CCC(C)=O)ccc2c1` [Nabumetone, nabumetone, reference compound]?
% Inhibition Oedema [1, 6]: −25.1 ± 4.7%; % Weight on inflamed paw (Allodynia) ([2]; nabumetone 3 mg/kg oral): 21.6 ± 3.6%; % Inhibition Allodynia [2, 6]: 4.3 ± 12.2%
